Assay results: article PMC12658114, “Pharmacologic inhibition of PCBP2 biomolecular condensates relieves Alzheimer’s disease” (Nature Communications, 2025)

Assays:
Assay in all cases: biotin probe pull-down on streptavidin beads, Western blot
Type in all cases: biochemical
Conditions in all cases: lysate of transfected SH-SY5Y cells; labelled compound
[1] = target: T1, flag-tagged INTS1 (Homo sapiens, UniProt Q8N201, R1404K)
T1 construct: full-length cDNA (synthesized) in pcDNA3.1(+), C-terminal 3xFLAG, transiently expressed in SH-SY5Y cells, cell lysate
T1 sequence (Q8N201 whole entry R1404K): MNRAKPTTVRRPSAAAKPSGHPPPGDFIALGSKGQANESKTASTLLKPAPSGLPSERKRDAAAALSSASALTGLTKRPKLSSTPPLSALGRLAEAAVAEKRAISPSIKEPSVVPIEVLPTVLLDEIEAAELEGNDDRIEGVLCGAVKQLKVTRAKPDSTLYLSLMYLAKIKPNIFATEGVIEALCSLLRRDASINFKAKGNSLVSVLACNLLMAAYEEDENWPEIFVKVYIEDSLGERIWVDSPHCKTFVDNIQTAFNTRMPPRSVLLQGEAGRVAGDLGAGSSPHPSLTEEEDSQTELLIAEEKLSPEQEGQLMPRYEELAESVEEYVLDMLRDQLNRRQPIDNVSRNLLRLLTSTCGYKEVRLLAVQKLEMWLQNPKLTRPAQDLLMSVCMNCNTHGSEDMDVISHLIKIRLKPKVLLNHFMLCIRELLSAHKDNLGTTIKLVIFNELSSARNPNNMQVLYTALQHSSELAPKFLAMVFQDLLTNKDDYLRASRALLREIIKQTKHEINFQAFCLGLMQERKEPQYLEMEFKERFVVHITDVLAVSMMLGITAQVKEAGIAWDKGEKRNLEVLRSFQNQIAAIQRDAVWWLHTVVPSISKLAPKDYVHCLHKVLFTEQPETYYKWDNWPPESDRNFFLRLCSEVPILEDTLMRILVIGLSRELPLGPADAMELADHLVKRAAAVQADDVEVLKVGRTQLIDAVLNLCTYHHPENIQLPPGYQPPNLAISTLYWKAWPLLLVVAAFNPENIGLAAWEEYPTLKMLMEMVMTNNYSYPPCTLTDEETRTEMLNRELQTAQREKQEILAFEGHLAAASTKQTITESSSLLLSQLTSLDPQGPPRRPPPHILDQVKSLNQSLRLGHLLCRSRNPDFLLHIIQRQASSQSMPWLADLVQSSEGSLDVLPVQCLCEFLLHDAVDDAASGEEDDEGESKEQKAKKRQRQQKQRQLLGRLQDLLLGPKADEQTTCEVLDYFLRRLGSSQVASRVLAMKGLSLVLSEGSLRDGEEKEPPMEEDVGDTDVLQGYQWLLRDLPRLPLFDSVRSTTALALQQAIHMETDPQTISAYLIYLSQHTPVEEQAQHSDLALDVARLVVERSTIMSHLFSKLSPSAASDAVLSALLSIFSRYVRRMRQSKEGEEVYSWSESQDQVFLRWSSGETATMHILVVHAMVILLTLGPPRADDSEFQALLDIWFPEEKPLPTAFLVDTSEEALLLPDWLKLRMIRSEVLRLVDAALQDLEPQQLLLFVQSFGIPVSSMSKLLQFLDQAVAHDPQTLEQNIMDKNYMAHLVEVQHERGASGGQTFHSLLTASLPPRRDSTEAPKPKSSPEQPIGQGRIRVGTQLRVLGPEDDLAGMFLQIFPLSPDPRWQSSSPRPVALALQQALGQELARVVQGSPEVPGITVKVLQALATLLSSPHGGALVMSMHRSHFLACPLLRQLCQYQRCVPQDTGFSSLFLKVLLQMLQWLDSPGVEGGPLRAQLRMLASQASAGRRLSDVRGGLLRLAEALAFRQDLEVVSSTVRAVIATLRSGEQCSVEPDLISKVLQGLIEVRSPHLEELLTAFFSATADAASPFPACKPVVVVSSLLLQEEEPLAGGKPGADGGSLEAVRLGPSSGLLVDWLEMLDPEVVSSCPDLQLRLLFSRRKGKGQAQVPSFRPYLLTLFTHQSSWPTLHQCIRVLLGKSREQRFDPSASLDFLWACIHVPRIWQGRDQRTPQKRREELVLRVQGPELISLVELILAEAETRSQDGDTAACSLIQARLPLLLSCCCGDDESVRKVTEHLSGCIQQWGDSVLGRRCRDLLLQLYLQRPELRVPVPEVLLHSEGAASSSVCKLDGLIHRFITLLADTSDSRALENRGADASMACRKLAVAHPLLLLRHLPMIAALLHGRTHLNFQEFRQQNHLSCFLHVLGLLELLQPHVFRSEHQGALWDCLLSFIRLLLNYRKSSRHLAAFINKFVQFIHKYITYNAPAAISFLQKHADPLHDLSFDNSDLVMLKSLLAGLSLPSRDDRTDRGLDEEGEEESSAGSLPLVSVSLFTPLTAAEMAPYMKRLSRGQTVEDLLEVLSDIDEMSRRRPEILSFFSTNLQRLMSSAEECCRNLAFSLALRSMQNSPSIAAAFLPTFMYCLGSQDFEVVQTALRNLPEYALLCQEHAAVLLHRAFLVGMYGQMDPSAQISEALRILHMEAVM

[2] = target: T2, (Homo sapiens, UniProt Q8N201, R1404A)
T2 construct: gene INTS1; full-length cDNA (synthesized) in pcDNA3.1(+), C-terminal 3xFLAG, transiently expressed in SH-SY5Y cells, cell lysate
T2 sequence (Q8N201 whole entry R1404A): as the sequence (Q8N201 whole entry R1404K) above, with K1404A counted along it

[3] = target: T3, flag-tagged wild type INTS1 (INTS1-WT-flag) (Homo sapiens, UniProt Q8N201)
T3 construct: full-length cDNA (synthesized) in pcDNA3.1(+), C-terminal 3xFLAG, transiently expressed in SH-SY5Y cells, cell lysate
T3 sequence (Q8N201 whole entry): as the sequence (Q8N201 whole entry R1404K) above, with K1404R counted along it

[4] = target: T4, (Homo sapiens, UniProt Q8N201, R1404L)
T4 construct: gene INTS1; full-length cDNA (synthesized) in pcDNA3.1(+), C-terminal 3xFLAG, transiently expressed in SH-SY5Y cells, cell lysate
T4 sequence (Q8N201 whole entry R1404L): as the sequence (Q8N201 whole entry R1404K) above, with K1404L counted along it

N#Cc1c(NC(=O)CN2CCN(C(=O)CCCC[C@H]3SC[C@@H]4NC(=O)N[C@@H]43)CC2)sc2c1CCCC2 [CN-0928-biotin, N-(3-cyano-4,5,6,7-tetrahydrobenzo[b]thiophen-2-yl)-2-(4-(5-((3aS,4R,6aR)-2-oxohexahydro-1H-thieno[3,4-d]imidazol-4-yl)pentanoyl)piperazin-1-yl)acetamide] was tested, and the pulldown [1] was “(R1404A, R1404L, and R1404K) prevented the binding of CN-0928-biotin to flag-labeled INTS1”, the pulldown [2] was “(R1404A, R1404L, and R1404K) prevented the binding of CN-0928-biotin to flag-labeled INTS1” and the “biotin probe pull-down on streptavidin beads, Western blot” value [3] was “CN-0928-biotin pulldown of flag-tagged wild type (INTS1-WT-flag)”. For the same compound, the pulldown [4] was “(R1404A, R1404L, and R1404K) prevented the binding of CN-0928-biotin to flag-labeled INTS1”.
